Results as given in ChEMBL document CHEMBL3603753, “Carbamoyl Triazoles, Known Serine Protease Inhibitors, Are a Potent New Class of Antimalarials” (J Med Chem, 2015).
≈ marks a conversion by molar mass, not a printed value.

How the values were obtained:
Plasmodium falciparum = experiment: Antimalarial activity against Plasmodium falciparum 3D7 infected in erythrocytes incubated for 48 hrs by [3H]hypoxanthine incorporation assay; assay type: functional, organism-based
Liver microsome = experiment: Intrinsic clearance in human liver microsomes; assay type: ADME
[1] = Half life in mouse liver microsomes; assay type: ADME
[2] = Half life in human liver microsomes; assay type: ADME
[3] = Kinetic solubility of the compound by chemoluminescent nitrogen detection kinetic solubility assay; assay type: physicochemical; conditions: read-out: Kinetic_solubility
HepG2 = experiment: Cytotoxicity against human HepG2 cells; assay type: cell-based
[4] = molecular target: T1, Subtilisin-like protease 1 (Plasmodium falciparum, UniProt O61142); experiment: Inhibition of Plasmodium falciparum recombinant SUB1 using SERA4st1F-6R12 substrate incubated for 55 mins by fluorescence spectrophotometry
T1 sequence (O61142 whole entry): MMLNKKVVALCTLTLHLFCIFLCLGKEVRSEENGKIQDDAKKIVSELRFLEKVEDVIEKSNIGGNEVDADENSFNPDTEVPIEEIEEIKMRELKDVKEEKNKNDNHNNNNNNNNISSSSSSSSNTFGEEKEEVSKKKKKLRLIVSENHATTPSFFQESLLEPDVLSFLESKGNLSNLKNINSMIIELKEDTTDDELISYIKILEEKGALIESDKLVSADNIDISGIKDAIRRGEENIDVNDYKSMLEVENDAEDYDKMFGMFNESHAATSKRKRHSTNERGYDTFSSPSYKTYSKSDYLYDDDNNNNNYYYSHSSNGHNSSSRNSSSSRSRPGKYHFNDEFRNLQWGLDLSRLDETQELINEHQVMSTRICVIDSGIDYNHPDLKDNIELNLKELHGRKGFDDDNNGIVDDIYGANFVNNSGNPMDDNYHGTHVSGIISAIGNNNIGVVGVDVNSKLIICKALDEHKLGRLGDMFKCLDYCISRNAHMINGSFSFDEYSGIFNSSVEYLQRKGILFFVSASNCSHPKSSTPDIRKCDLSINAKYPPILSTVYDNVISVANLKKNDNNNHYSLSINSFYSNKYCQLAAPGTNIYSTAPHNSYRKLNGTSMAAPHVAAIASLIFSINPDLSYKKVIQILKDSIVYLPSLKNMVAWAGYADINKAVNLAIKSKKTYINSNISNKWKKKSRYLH

Acetylcholinesterase = Acetylcholinesterase (Homo sapiens, UniProt P22303); experiment: Inhibition of human AChE
Acetylcholinesterase, sequence (P22303 whole entry): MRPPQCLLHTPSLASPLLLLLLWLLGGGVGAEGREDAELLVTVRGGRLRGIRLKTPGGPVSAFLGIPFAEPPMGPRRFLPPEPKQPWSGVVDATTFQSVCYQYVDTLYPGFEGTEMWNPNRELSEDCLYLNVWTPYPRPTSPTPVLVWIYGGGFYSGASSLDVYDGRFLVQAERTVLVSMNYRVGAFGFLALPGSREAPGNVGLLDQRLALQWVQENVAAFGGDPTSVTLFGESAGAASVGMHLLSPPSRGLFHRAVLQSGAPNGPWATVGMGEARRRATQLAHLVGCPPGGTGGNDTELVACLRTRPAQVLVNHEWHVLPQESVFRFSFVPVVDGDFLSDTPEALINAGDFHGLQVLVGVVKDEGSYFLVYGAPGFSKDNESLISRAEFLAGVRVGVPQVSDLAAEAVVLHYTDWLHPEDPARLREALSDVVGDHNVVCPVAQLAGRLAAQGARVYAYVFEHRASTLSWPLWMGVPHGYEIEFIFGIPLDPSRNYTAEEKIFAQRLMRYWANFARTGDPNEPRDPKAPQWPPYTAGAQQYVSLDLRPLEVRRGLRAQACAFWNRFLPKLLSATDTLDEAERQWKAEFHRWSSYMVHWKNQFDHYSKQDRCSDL

Row | SMILES | IC50 (Plasmodium falciparum) | further results
1 | O=C(N1CCCC1)n1cnc(S[C@@H]2C[C@H]3CC[C@@H]2C3)n1 | 0.178 µM | Intrinsic clearance (Liver microsome): 1.5 mL/min/g; half-life [1]: < 5 min; half-life [2]: > 30 min
2 | Cc1nc(S(=O)(=O)[C@@H]2C[C@H]3CC[C@@H]2C3)nn1C(=O)N(C)C(C)C | > 4 µM | 
3 | CN(Cc1ccc(C(C)(C)C)cc1)C(=O)n1cnc(S(=O)(=O)[C@@H]2C[C@H]3CC[C@@H]2C3)n1 | 0.016 µM | solubility kinetic [3]: 28 µM (≈ 12.1 µg/mL); IC50 (HepG2): 75.2 µM; half-life [1]: 9 min
4 | COc1ccc(CN(C(=O)n2cnc(S(=O)(=O)[C@@H]3C[C@H]4CC[C@@H]3C4)n2)C(C)C)cc1 | 0.84 µM | 
5 | CCCN(C)C(=O)n1cnc(S(=O)(=O)[C@@H]2C[C@H]3CC[C@@H]2C3)n1 | 0.145 µM | 
6 | CN(Cc1ccc(S(C)(=O)=O)cc1)C(=O)n1cnc(S(=O)(=O)[C@@H]2C[C@H]3CC[C@@H]2C3)n1 | 0.29 µM | 
7 | CCN(C)C(=O)n1cnc(S(=O)(=O)c2c(C)cc(C)cc2C)n1 | 0.164 µM | 
8 | CN(C)C(=O)n1cnc(S(=O)(=O)c2ccc(Cl)cc2)n1 | 0.571 µM | 
9 | CC(C)N(C)C(=O)n1cnc(S(=O)(=O)C2CCCCC2)n1 | 0.028 µM | 
10 | CCN(CC)C(=O)n1cnc(S[C@@H]2C[C@H]3CC[C@@H]2C3)n1 | 2.24 µM | 
11 | CN(C(=O)n1cnc(S(=O)(=O)[C@@H]2C[C@H]3CC[C@@H]2C3)n1)C(C)(C)C | > 5 µM | 
12 | O=C(N1CCCC1)n1cnc(S(=O)(=O)Cc2ccccc2)n1 | 0.418 µM | IC50 [4]: Not Active
13 | CN(C)C(=O)n1cnc(S[C@@H]2C[C@H]3CC[C@@H]2C3)n1 | 0.141 µM | 
14 | CN(C(=O)n1cnc(S[C@@H]2C[C@H]3CC[C@@H]2C3)n1)c1ccccc1 | > 5 µM | 
15 | CSc1nc(-c2ccc(OC(F)(F)F)cc2)nn1C(=O)N(C)c1ccccc1 |  | IC50 (Acetylcholinesterase): > 50000 µM

Now from value to compound, other results behind:

Row | IC50 (Plasmodium falciparum) | SMILES | further results
16 | > 5 µM | O=C(N1CCc2ccccc2C1)n1cnc(S(=O)(=O)[C@@H]2C[C@H]3CC[C@@H]2C3)n1 | 
17 | 0.036 µM | COc1cccc(CN(C)C(=O)n2cnc(S(=O)(=O)[C@@H]3C[C@H]4CC[C@@H]3C4)n2)c1 | 
18 | 0.093 µM | CCN(C)C(=O)n1cnc(S(=O)(=O)[C@@H]2C[C@H]3CC[C@@H]2C3)n1 | 
19 | 0.725 µM | CN(Cc1ccccc1Cl)C(=O)n1cnc(S(=O)(=O)[C@@H]2C[C@H]3CC[C@@H]2C3)n1 | 
20 | 0.373 µM | CN(Cc1cccc(F)c1)C(=O)n1cnc(S(=O)(=O)[C@@H]2C[C@H]3CC[C@@H]2C3)n1 | 
21 | 1.26 µM | CN(Cc1ccccc1C(F)(F)F)C(=O)n1cnc(S(=O)(=O)[C@@H]2C[C@H]3CC[C@@H]2C3)n1 | 
22 | 0.554 µM | CN(Cc1ccc(C(F)(F)F)cc1)C(=O)n1cnc(S(=O)(=O)[C@@H]2C[C@H]3CC[C@@H]2C3)n1 | 
23 | 0.626 µM | O=C(N1CCCCC1)n1cnc(S(=O)(=O)[C@@H]2C[C@H]3CC[C@@H]2C3)n1 | 
24 | 0.197 µM | CN(Cc1ccc(F)cc1)C(=O)n1cnc(S(=O)(=O)[C@@H]2C[C@H]3CC[C@@H]2C3)n1 | 
